Laboratory results from patent publication US8759579B2, “Cyclobutyl sulfones as notch sparing gamma secretase inhibitors” (Merck Sharp & Dohme Corp., priority 2008, dated 2014).
Like-named read-outs stand apart in the source and are kept apart here.

Key:
[1] = covalent protein binding assay with liver microsomes; format: in vitro ADME; details: radiolabeled compound incubated with human liver microsomes
Description: MRK-560 and Example 2 were tested in a covalent protein binding assay which is predictive of drug toxicity. The potential of drug candidates to cause covalent binding to proteins is evaluated by incubation of the radiolabeled version of the compound in question with liver microsomes. A semi-automated method based on Brandel Harvester technique is then used to measure the formation of covalent adducts of the test compound to liver proteins binding (Ref. Day et. al, J Pharmacol Toxicol Methods. 52, 278-85, 2005).

[2] = system: gamma secretase-dependent cleavage of the Notch protein (NotchΔE) in HeLa cells; assay: Notch processing split-luciferase assay (Notch intracellular domain release); format: cell-based
From the text: Notch Processing: (Assay Quantitates Notch Intracellular Domain Release in Cell Lines):
A “split-luciferase” assay is used to measure inhibition of gamma secretase-dependent cleavage of the Notch protein. In this assay, HeLa cells were made to express a Notch protein lacking its extracellular domain (NotchΔE) fused to an N-terminal fragment of luciferase. The same cells also expressed a C-terminal fragment of luciferase fused to the immunoglobulin J kappa recombination signal sequence binding protein (RBP). Upon NotchΔE cleavage by gamma secretase, a Notch intracellular domain (NICD)-N terminal luciferase protein is generated which translocates to the nucleus and binds the RBP-C terminal luciferase fusion, bringing two independently nonfunctional halves of luciferase together to form a functional luciferase enzyme. The activity of luciferase in these cells is directly proportional to the amount of gamma secretase-cleaved Notch. Luciferase activity is determined by the standard techniques of luciferin addition to lysed cells and measurement of total luminescence.

[3] = target: T1, pregnane X receptor (PXR) (Homo sapiens, UniProt O75469); assay: PXR assay (CYP3A4-SEAP transactivation assay, PCSTA); format: cell-based; details: for EC50: HEP G2 cells
T1 construct: expressed in transfected cells; host or cells: HEP G2
T1 sequence (O75469 1-434): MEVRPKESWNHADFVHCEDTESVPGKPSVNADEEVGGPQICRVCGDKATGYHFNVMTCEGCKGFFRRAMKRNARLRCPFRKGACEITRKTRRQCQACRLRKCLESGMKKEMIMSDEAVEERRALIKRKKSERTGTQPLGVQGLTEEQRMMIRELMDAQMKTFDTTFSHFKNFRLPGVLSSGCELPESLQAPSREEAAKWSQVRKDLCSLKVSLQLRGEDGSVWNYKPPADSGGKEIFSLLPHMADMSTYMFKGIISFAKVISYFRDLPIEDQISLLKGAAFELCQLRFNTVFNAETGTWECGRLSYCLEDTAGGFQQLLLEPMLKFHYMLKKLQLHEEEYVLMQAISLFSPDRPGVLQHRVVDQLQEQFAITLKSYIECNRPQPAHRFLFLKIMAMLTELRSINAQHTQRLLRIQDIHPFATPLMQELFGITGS
T1 sequence (P19793 1-462 partner): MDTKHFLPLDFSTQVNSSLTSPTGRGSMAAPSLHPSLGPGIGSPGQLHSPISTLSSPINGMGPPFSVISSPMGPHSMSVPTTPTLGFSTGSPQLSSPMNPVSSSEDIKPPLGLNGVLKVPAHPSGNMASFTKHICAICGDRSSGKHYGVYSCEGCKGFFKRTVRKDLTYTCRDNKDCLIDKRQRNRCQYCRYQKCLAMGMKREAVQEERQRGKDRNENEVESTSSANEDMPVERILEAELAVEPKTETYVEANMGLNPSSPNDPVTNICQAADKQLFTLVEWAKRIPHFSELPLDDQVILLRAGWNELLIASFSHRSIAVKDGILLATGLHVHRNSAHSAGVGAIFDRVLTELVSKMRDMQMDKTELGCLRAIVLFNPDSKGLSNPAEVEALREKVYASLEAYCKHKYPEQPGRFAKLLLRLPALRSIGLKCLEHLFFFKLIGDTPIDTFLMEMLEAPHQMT
From the text: The CYP3A4-SEAP transactivation assay (PCSTA) effectively and rapidly evaluates compounds for their potential to induce cytochrome P450 CYP3A (human CYP3A4 or rat CYP3A1). The reporter construct contains regulatory regions from the CYP3A4 gene positioned just upstream of a secreted alkaline phosphatase (SEAP) gene. The human PXR nuclear receptor has been modified at the 5′-end so that methionine is the initiating amino acid replacing leucine found in the wild-type sequence. HEP G2 cells are transfected with the PXR plasmid (human or rat) and the reporter plasmid. Read-out for the induction of CYP3A4 consists of a SEAP calorimetric assay with para-nitro-phenyl phosphate (pNPP) as the substrate. Five point dose-response curves in duplicate are then generated with each point corresponding to the rate of conversion of pNPP to pNP by SEAP. For the human PCSTA, rifampicin is used as the positive control and 100% induction is based upon the maximum induction produced by rifampicin at 10 μM.

[4] = system: Aβ40 peptides generated from SH-SY5Y cells expressing amyloid β protein (SP4CT cells); assay: APP processing AlphaLisa assay, secreted Aβ40; format: cell-based; details: average of at least >4 replicates, read-out: AB40 IC50 AVG
Description: (§1) APP Processing (Assay Quantitates Secreted Aβ Analytes from Cell Lines):
(§2) The effect of compounds on the abundance of Aβ40 and Aβ42 peptides generated from SH-SY5Y cells expressing amyloid β protein (SP4CT cells) was determined by an AlphaLisa™ assay. Analogous to an ELISA assay, generation of signal in this AlphaLisa™ assay requires “donor” and “acceptor” beads to be brought in close proximity by specific antibody recognition of either Aβ40 or Aβ42 peptides. The assay was accomplished by removing media from compound-treated SP4CT cells to two different microplates, followed by the addition of donor beads conjugated with streptavidin binding a biotinylated anti-amyloid β monoclonal antibody (clone 4G8). Acceptor beads directly conjugated with anti-Aβ40 monoclonal antibody (G210) were added to one microplate and anti-Aβ42 monoclonal antibody (12F4) acceptor beads were added to the other. Abundance of Aβ40 and Aβ42 was directly proportional to the luminescent signal generated following excitation of donor beads by laser light.

[5] = system: Aβ42 peptides generated from SH-SY5Y cells expressing amyloid β protein (SP4CT cells); assay: APP processing AlphaLisa assay, secreted Aβ42; format: cell-based; details: average of at least >4 replicates, read-out: AB42 IC50 AVG
Description: as §1, §2

[6] = Homo sapiens, HeLa, average of at least >4 replicates, read-out: Notch IC50 AVG
[7] = read-out: Notch IC50 AVG, average of at least >4 replicates

| IC50 [2, 6] [nM] | PXR % Activation @ 10 uM [3] [%] | EC50 [3] [nM] | IC50 ([4]; Homo sapiens, SH-SY5Y) [nM] | IC50 ([5]; Homo sapiens, SH-SY5Y) [nM] | Compound | covalent protein binding (human microsomes) [1] [pmol/mg] | IC50 [2, 7] [nM] | IC50 [4] [nM] | IC50 [5] [nM] |
| --- | --- | --- | --- | --- | --- | --- | --- | --- | --- |
| 5210 | 74.6 | 848 | 37.3 | 37 | C[C@]1(NS(=O)(=O)C(F)(F)F)C[C@@](c2cc(F)ccc2F)(S(=O)(=O)c2ccc(Cl)cc2)C1 [Example 17, N-[cis-3-[(4-chlorophenyl)sulfonyl]-3-(2,5-difluorophenyl)-1-methylcyclobutyl]-1,1,1-trifluoromethanesulfonamide] |  |  |  |  |
| 4470 | 75.5 | 3090 | 60.8 | 65.4 | CC1(NS(=O)(=O)C(F)(F)F)CC(c2cc(F)ccc2F)(S(=O)(=O)c2ccc(C(F)(F)F)cc2)C1 (stereo not drawn) [Example 18, N-(cis-3-(2,5-difluorophenyl)-1-methyl-3-{[4-(trifluoromethyl)phenyl]sulfonyl}cyclobutyl)-1,1,1-trifluoromethanesulfonamide] |  |  |  |  |
| 5200 | 50.6 | 9650 | 250 | 237 | O=S(=O)(N[C@H]1C[C@@](c2cc(F)ccc2F)(S(=O)(=O)c2ccc(OC(F)(F)F)cc2)C1)C(F)(F)F [Example 22, N-[cis-3-[(4-trifluoromethoxyphenyl)sulfonyl]-3-(2,5-difluorophenyl)cyclobutyl]-1,1,1-trifluoromethanesulfonamide] |  |  |  |  |

The remaining lines, values behind:

| Compound | IC50 [2, 6] [nM] | PXR % Activation @ 10 uM [3] [%] | EC50 [3] [nM] | IC50 ([4]; Homo sapiens, SH-SY5Y) [nM] | IC50 ([5]; Homo sapiens, SH-SY5Y) [nM] | covalent protein binding (human microsomes) [1] [pmol/mg] | IC50 [2, 7] [nM] | IC50 [4] [nM] | IC50 [5] [nM] |
| --- | --- | --- | --- | --- | --- | --- | --- | --- | --- |
| O=S(=O)(N[C@H]1C[C@@](c2cc(F)ccc2F)(S(=O)(=O)c2ccc(Cl)cc2)C1)C(F)(F)F [Example 2, N-[cis-3-[(4-chlorophenyl)sulfonyl]-3-(2,5-difluorophenyl)cyclobutyl]-1,1,1-trifluoromethanesulfonamide] | 3480 | 55.5 | 3430 | 42.8 | 38.4 | 380 |  |  |  |
| O=S(=O)(N([C@H]1C[C@@](c2cc(F)ccc2F)(S(=O)(=O)c2ccc(Cl)cc2)C1)S(=O)(=O)C(F)(F)F)C(F)(F)F [Example 19, N-[cis-3-[(4-chlorophenyl)sulfonyl]-3-(2,5-difluorophenyl)cyclobutyl]-1,1,1-trifluoro-N-[(trifluoromethyl)sulfonyl]methanesulfonamide] | 5680 | 89.1 | 1250 | 62.6 | 48.7 |  |  |  |  |
| O=S(=O)([N-][C@H]1C[C@@](c2cc(F)ccc2F)(S(=O)(=O)c2ccc(Cl)cc2)C1)C(F)(F)F.[Na+] [Example 20, Sodium [cis-3-[(4-chlorophenyl)sulfonyl]-3-(2,5-difluorophenyl)cyclobutyl][(trifluoromethyl)sulfonyl]azanide] |  | 71.9 | 2890 |  |  |  | 1770 | 61.2 | 53.2 |
| O=S(=O)([N-][C@H]1C[C@@](c2cc(F)ccc2F)(S(=O)(=O)c2ccc(Cl)cc2)C1)C(F)(F)F.[K+] [Example 21, Potassium [cis-3-[(4-chlorophenyl)sulfonyl]-3-(2,5-difluorophenyl)cyclobutyl][(trifluoromethyl)sulfonyl]azanide] |  | 64.4 | 3380 |  |  |  | 2130 | 64.9 | 70.9 |
